Values quoted from earlier work in US6051685A, “Peptide derivatives” (Daiichi Pharmaceuticals Co., Ltd., priority 1994, dated 2000).

Experiments:
[1] = intraventricular administration
[2] = in vivo

## C[C@@H](NC(=O)[C@@H](N)Cc1ccc(O)cc1)C(=O)N[C@@H](Cc1ccccc1)C(=O)NCC(=O)N[C@@H](Cc1ccc(O)cc1)C(=O)N1CCC[C@H]1C(=O)N[C@@H](CO)C(N)=O [Delmorfine, Dermorphin]
[1]
  analgesic effect relative to morphine: about 1,000 fold
[2]
  stability in living bodies: relatively stable in living bodies
